According to US9611267B2, “Substituted tricyclic compounds as FGFR inhibitors” (Incyte Corporation, priority 2012, dated 2017):

What was measured:
Format in all cases: biochemical
FGFR1 = FGFR1 (Homo sapiens (Human), UniProt P11362); experiment: FGFR enzymatic assay (FRET peptide phosphorylation), FGFR1; details: FGFR1 enzyme 0.02 nM, ATP 210 μM
Summary of the method: (§1)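 Recombinant kinase was pre-incubated 5–10 min with serially diluted inhibitor in HEPES buffer (10 mM MgCl2, 5 mM DTT, pH 7.5; buffer described for FGFR3). Peptide phosphorylation ran 1 h at 25 °C and was detected by FRET after ~1 h equilibration. IC50 values come from variable-slope sigmoidal fits.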

FGFR3 = FGFR3 (Homo sapiens (Human), UniProt P22607); experiment: FGFR enzymatic assay (FRET peptide phosphorylation), FGFR3; details: FGFR3 enzyme (Millipore), ATP 140 μM
Chain of FGFR3 (P22607 23-806): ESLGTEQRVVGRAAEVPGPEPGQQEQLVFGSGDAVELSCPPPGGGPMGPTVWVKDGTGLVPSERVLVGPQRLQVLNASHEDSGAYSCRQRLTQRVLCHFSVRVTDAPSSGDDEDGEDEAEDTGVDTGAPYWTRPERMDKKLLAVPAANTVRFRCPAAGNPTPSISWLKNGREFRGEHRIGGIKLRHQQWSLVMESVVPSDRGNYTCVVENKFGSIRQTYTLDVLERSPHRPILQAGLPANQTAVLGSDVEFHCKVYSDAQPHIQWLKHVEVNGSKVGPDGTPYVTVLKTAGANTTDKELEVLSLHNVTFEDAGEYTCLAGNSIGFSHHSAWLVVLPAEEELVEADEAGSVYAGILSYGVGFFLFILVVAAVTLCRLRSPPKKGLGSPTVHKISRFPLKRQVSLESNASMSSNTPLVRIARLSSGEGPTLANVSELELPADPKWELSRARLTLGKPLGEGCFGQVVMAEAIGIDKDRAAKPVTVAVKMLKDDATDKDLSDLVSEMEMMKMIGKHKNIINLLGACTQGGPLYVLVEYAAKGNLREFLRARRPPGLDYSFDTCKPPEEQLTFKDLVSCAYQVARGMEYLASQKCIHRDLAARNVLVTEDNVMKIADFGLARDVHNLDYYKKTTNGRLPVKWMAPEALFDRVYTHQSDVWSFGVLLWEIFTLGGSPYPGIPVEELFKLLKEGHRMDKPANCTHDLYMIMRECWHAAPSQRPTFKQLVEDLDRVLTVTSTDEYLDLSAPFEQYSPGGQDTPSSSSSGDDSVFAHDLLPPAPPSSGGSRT
Summary of the method: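 FRET assay of peptide phosphorylation by FGFR3 in HEPES pH 7.5 buffer with MgCl2, EGTA, Tween-20 and DTT. Enzyme was pre-incubated 5-10 min with compound, and the reaction ran 1 hr at 25° C. IC50 came from a variable-slope sigmoidal fit.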

FGFR2 = FGFR2 (Homo sapiens (Human), UniProt P21802); experiment: FGFR enzymatic assay (FRET peptide phosphorylation), FGFR2; details: FGFR2 enzyme 0.01 nM, ATP 100 μM
Chain of FGFR2 (P21802 22-821): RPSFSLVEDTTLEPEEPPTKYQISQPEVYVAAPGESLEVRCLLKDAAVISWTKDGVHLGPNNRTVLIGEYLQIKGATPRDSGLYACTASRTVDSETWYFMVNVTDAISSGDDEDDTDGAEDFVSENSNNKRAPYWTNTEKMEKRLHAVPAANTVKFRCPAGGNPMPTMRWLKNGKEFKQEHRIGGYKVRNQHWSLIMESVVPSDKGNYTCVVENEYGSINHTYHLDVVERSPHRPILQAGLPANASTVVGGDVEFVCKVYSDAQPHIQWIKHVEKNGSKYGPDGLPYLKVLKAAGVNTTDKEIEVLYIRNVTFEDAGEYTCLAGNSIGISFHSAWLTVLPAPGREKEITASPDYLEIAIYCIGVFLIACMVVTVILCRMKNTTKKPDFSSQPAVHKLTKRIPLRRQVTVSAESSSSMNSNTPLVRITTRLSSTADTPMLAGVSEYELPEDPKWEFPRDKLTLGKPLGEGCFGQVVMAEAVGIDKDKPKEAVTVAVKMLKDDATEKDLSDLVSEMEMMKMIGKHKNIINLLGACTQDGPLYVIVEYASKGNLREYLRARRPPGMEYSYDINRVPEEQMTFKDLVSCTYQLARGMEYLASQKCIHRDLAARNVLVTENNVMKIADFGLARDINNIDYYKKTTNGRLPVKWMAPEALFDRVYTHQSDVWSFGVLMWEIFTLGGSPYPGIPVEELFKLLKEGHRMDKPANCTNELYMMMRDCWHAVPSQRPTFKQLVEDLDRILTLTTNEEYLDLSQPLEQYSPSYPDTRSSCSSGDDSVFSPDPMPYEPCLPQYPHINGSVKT
Summary of the method: as §1

Measured: IC50

Chain of FGFR1 (P11362 22-822): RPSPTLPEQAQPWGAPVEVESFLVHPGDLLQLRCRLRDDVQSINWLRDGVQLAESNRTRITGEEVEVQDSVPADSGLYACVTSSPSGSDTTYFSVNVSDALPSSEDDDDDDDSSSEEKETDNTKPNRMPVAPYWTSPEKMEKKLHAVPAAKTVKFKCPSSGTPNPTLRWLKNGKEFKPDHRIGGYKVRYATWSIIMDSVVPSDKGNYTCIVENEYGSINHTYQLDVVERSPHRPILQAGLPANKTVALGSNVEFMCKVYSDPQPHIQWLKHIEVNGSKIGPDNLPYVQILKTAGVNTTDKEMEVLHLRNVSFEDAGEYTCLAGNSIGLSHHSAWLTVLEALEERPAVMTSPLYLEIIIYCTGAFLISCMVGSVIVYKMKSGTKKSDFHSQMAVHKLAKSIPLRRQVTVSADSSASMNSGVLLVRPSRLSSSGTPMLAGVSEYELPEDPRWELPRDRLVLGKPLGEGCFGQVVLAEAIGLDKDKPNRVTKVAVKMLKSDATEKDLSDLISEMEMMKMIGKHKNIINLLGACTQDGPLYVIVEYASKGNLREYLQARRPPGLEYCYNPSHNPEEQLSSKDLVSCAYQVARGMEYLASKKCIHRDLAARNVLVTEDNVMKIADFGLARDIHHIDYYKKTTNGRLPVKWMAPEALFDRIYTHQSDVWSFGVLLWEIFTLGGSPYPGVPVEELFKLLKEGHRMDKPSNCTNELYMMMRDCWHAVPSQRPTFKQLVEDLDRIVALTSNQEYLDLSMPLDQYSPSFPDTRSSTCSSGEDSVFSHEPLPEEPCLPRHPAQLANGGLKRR

COc1cc(OC)c(Cl)c(N2Cc3cnc4c(c3N(C3CCC3)C2=O)CC(=O)N4)c1F [Example 106, 3-(2-chloro-6-fluoro-3,5-dimethoxyphenyl)-1-cyclobutyl-3,4,7,9-tetrahydro-1H-pyrrolo[3′,2′:5,6]pyrido[4,3-d]pyrimidine-2,8-dione]
< 100 nM: all assays above

COc1cc(OC)c(Cl)c(N2Cc3cnc4[nH]ccc4c3N(c3cnn(C)c3)C2=O)c1F [Example 107, 3-(2-chloro-6-fluoro-3,5-dimethoxyphenyl)-1-(1-methyl-1H-pyrazol-4-yl)-1,3,4,7-tetrahydro-2H-pyrrolo[3′,2′:5,6]pyrido[4,3-d]pyrimidin-2-one]
< 100 nM: all assays above

COc1cc(OC)c(Cl)c(N2Cc3cnc4[nH]ccc4c3N(c3cccnc3)C2=O)c1F [Example 108, 3-(2-chloro-6-fluoro-3,5-dimethoxyphenyl)-1-pyridin-3-yl-1,3,4,7-tetrahydro-2H-pyrrolo[3′,2′:5,6]pyrido[4,3-d]pyrimidin-2-one]
< 100 nM: all assays above

COc1cc(OC)c(F)c(N2Cc3cnc4[nH]ccc4c3N(c3cccnn3)C2=O)c1F [Example 109, 3-(2,6-difluoro-3,5-dimethoxyphenyl)-1-pyridazin-3-yl-1,3,4,7-tetrahydro-2H-pyrrolo[3′,2′:5,6]pyrido[4,3-d]pyrimidin-2-one]
< 100 nM: all assays above

COc1cc(OC)c(F)c(N2Cc3cnc4[nH]c(CN5CCOCC5)cc4c3N(C)C2=O)c1F [Example 110, 3-(2,6-difluoro-3,5-dimethoxyphenyl)-1-methyl-8-(morpholin-4-ylmethyl)-1,3,4,7-tetrahydro-2H-pyrrolo[3′,2′:5,6]pyrido[4,3-d]pyrimidin-2-one]
< 100 nM: all assays above

COc1cc(OC)c(F)c(N2Cc3cnc4[nH]c(CN5CCC(O)CC5)cc4c3N(C)C2=O)c1F [Example 111, 3-(2,6-difluoro-3,5-dimethoxyphenyl)-8-[(4-hydroxypiperidin-1-yl)methyl]-1-methyl-1,3,4,7-tetrahydro-2H-pyrrolo[3′,2′:5,6]pyrido[4,3-d]pyrimidin-2-one]
< 100 nM: all assays above

COc1cc(OC)c(F)c(N2Cc3cnc4[nH]c(CN5CCC(F)(F)CC5)cc4c3N(C)C2=O)c1F [Example 112, 3-(2,6-difluoro-3,5-dimethoxyphenyl)-8-[(4,4-difluoropiperidin-1-yl)methyl]-1-methyl-1,3,4,7-tetrahydro-2H-pyrrolo[3′,2′:5,6]pyrido[4,3-d]pyrimidin-2-one]
< 100 nM: all assays above

COc1cc(OC)c(F)c(N2Cc3cnc4[nH]c(CN5CCCC(F)(F)C5)cc4c3N(C)C2=O)c1F [Example 113, 3-(2,6-difluoro-3,5-dimethoxyphenyl)-8-[(3,3-difluoropiperidin-1-yl)methyl]-1-methyl-1,3,4,7-tetrahydro-2H-pyrrolo[3′,2′:5,6]pyrido[4,3-d]pyrimidin-2-one]
< 100 nM: all assays above

COc1cc(OC)c(F)c(N2Cc3cnc4[nH]c(CCN5CCOCC5)cc4c3N(C)C2=O)c1F [Example 114, 3-(2,6-difluoro-3,5-dimethoxyphenyl)-1-methyl-8-(2-morpholin-4-ylethyl)-1,3,4,7-tetrahydro-2H-pyrrolo[3′,2′:5,6]pyrido[4,3-d]pyrimidin-2-one]
< 100 nM: all assays above

COc1cc(OC)c(F)c(N2Cc3cnc4[nH]c(CCN5CCC5)cc4c3N(C)C2=O)c1F [Example 115, 8-(2-azetidin-1-ylethyl)-3-(2,6-difluoro-3,5-dimethoxyphenyl)-1-methyl-1,3,4,7-tetrahydro-2H-pyrrolo[3′,2′:5,6]pyrido[4,3-d]pyrimidin-2-one]
< 100 nM: all assays above

COc1cc(OC)c(F)c(N2Cc3cnc4[nH]c(CCN5CCCC5)cc4c3N(C)C2=O)c1F [Example 116, 3-(2,6-difluoro-3,5-dimethoxyphenyl)-1-methyl-8-(2-pyrrolidin-1-ylethyl)-1,3,4,7-tetrahydro-2H-pyrrolo[3′,2′:5,6]pyrido[4,3-d]pyrimidin-2-one]
< 100 nM: all assays above

COc1cc(OC)c(F)c(N2Cc3cnc4[nH]c(CCCN5CCOCC5)cc4c3N(C)C2=O)c1F [Example 117, 3-(2,6-difluoro-3,5-dimethoxyphenyl)-1-methyl-8-(3-morpholin-4-ylpropyl)-1,3,4,7-tetrahydro-2H-pyrrolo[3′,2′:5,6]pyrido[4,3-d]pyrimidin-2-one]
< 100 nM: all assays above

COc1cc(OC)c(F)c(N2Cc3cnc4[nH]c(CCCN5CCN(C6CC6)CC5)cc4c3N(C)C2=O)c1F [Example 118, 8-[3-(4-cyclopropylpiperazin-1-yl)propyl]-3-(2,6-difluoro-3,5-dimethoxyphenyl)-1-methyl-1,3,4,7-tetrahydro-2H-pyrrolo[3′,2′:5,6]pyrido[4,3-d]pyrimidin-2-one]
< 100 nM: all assays above

CCN1CCN(C(=O)c2cc3c4c(cnc3[nH]2)CN(c2c(F)c(OC)cc(OC)c2F)C(=O)N4C)CC1 [Example 119, 3-(2,6-difluoro-3,5-dimethoxyphenyl)-8-[(4-ethylpiperazin-1-yl)carbonyl]-1-methyl-1,3,4,7-tetrahydro-2H-pyrrolo[3′,2′:5,6]pyrido[4,3-d]pyrimidin-2-one]
< 100 nM: all assays above

COc1cc(OC)c(F)c(N2Cc3cnc4[nH]c(C(=O)N5C[C@@H](C)N[C@@H](C)C5)cc4c3N(C)C2=O)c1F [Example 120, 3-(2,6-difluoro-3,5-dimethoxyphenyl)-8-{[(3R,5S)-3,5-dimethylpiperazin-1-yl]carbonyl}-1-methyl-1,3,4,7-tetrahydro-2H-pyrrolo[3′,2′:5,6]pyrido[4,3-d]pyrimidin-2-one]
< 100 nM: all assays above

CCN1C(=O)N(c2c(F)c(OC)cc(OC)c2F)Cc2cnc3[nH]ccc3c21 [Example 121, 3-(2,6-Difluoro-3,5-dimethoxyphenyl)-1-ethyl-1,3,4,7-tetrahydro-2H-pyrrolo[3′,2′:5,6]pyrido[4,3-d]pyrimidin-2-one]
< 100 nM: all assays above

COc1cc(OC)c(F)c(N2Cc3cnc4c(c3N(Cc3cccc(C#N)c3)C2=O)CC(=O)N4)c1F [Example 123, 3-{[3-(2,6-difluoro-3,5-dimethoxyphenyl)-2,8-dioxo-2,3,4,7,8,9-hexahydro-1H-pyrrolo[3′,2′:5,6]pyrido[4,3-d]pyrimidin-1-yl]methyl}benzonitrile]
< 100 nM: all assays above

COc1cc(OC)c(Cl)c(N2Cc3cnc4c(c3N(c3cccc(F)c3F)C2=O)CC(=O)N4)c1F [Example 124, 3-(2-chloro-6-fluoro-3,5-dimethoxyphenyl)-1-(2,3-difluorophenyl)-3,4,7,9-tetrahydro-1H-pyrrolo[3′,2′:5,6]pyrido[4,3-d]pyrimidine-2,8-dione]
< 100 nM: all assays above

COc1cc(OC)c(F)c(N2Cc3cnc4c(c3N(c3ccc(C#N)cc3F)C2=O)CC(=O)N4)c1F [Example 125, 4-[3-(2,6-difluoro-3,5-dimethoxyphenyl)-2,8-dioxo-2,3,4,7,8,9-hexahydro-1H-pyrrolo[3′,2′:5,6]pyrido[4,3-d]pyrimidin-1-yl]-3-fluorobenzonitrile]
< 100 nM: all assays above

CCN1C(=O)N(c2c(F)c(OC)cc(OC)c2F)Cc2cnc3[nH]c(CN4CCN(C)CC4)cc3c21 [Example 127, 3-(2,6-difluoro-3,5-dimethoxyphenyl)-1-ethyl-8-[(4-methylpiperazin-1-yl)methyl]-1,3,4,7-tetrahydro-2H-pyrrolo[3′,2′:5,6]pyrido[4,3-d]pyrimidin-2-one]
< 100 nM: all assays above

COc1cc(OC)c(F)c(N2Cc3cnc4[nH]c(CN5CCN(C)CC5)cc4c3N(C)C2=O)c1F [Example 129, 3-(2,6-difluoro-3,5-dimethoxyphenyl)-1-methyl-8-[(4-methylpiperazin-1-yl)methyl]-1,3,4,7-tetrahydro-2H-pyrrolo[3′,2′:5,6]pyrido[4,3-d]pyrimidin-2-one]
< 100 nM: all assays above
